Data as given in ChEMBL document CHEMBL1129785, “Preparation and structure-activity relationship of novel P1/P1'-substituted cyclic urea-based human immunodeficiency virus type-1 protease inhibitors” (J Med Chem, 1996).
Values joined by “and” are separate entries in the source; they are usually repeats but may differ in a detail not shown here. Equal entries are not always repeated.

Assays:
[1] = test system: Human immunodeficiency virus 1; experiment: Antiviral potency was assessed by measuring the effect on accumulation of viral RNA transcripts 3 days after infection of MT-2 cells with HIV-1 RF; format: functional, MT2
[2] = target: Human immunodeficiency virus type 1 protease (Human immunodeficiency virus 1, UniProt Q72874); experiment: Inhibitory activity against HIV protease
[3] = target: Human immunodeficiency virus type 1 protease (Human immunodeficiency virus 1) (UniProt Q72874); experiment: Ability to increase whole-cell antiviral efficacy through better translation defined as the ratio between IC90 and Ki; format: functional
[4] = Human immunodeficiency virus 1, MT2, 72 h

Compound	IC90 [1, 4] [nM]	Ki [2] [nM]	IC90 [1] [nM]	Ratio [3]
Nc1ccc(C[C@@H]2[C@H](O)[C@@H](O)[C@@H](Cc3ccc(N)cc3)N(Cc3ccccc3)C(=O)N2Cc2ccccc2)cc1 [listing 1 of 3 here]	1400	8.5	–	–
CSCC[C@@H]1[C@H](O)[C@@H](O)[C@@H](CCSC)N(Cc2ccccc2)C(=O)N1Cc1ccccc1	> 10000	1100	–	–
C[C@@H]1[C@H](O)[C@@H](O)[C@@H](C)N(Cc2ccccc2)C(=O)N1Cc1ccccc1	> 10000	5000	–	–
Nc1ccc(C[C@@H]2[C@H](O)[C@@H](O)[C@@H](Cc3ccc(N)cc3)N(Cc3ccccc3)C(=O)N2Cc2ccccc2)cc1 [listing 2 of 3 here]	–	7.1	1300	–
COc1cccc(C[C@@H]2[C@H](O)[C@@H](O)[C@@H](Cc3cccc(OC)c3)N(CC3CC3)C(=O)N2CC2CC2)c1	650	0.87	–	750
O=C1N(CC2CC2)[C@H](Cc2ccccc2)[C@H](O)[C@@H](O)[C@@H](Cc2ccccc2)N1CC1CC1	1840	1.9	–	970
COc1ccc(C[C@@H]2[C@H](O)[C@@H](O)[C@@H](Cc3ccc(OC)cc3)N(CC3CC3)C(=O)N2CC2CC2)cc1	320	2.9	–	110
O=C1N(Cc2ccccc2)[C@H](Cc2ccoc2)[C@H](O)[C@@H](O)[C@@H](Cc2ccoc2)N1Cc1ccccc1	7800	8.4	–	920
O=C1N(Cc2ccccc2)[C@H](Cc2ccccc2)[C@H](O)[C@@H](O)[C@@H](Cc2ccccc2)N1Cc1ccccc1	790	3.4	–	230
O=C1N(Cc2ccccc2)[C@H](Cc2ccc3c(c2)OCO3)[C@H](O)[C@@H](O)[C@@H](Cc2ccc3c(c2)OCO3)N1Cc1ccccc1	500	1.3	–	385
COc1ccccc1C[C@@H]1[C@H](O)[C@@H](O)[C@@H](Cc2ccccc2OC)N(Cc2ccccc2)C(=O)N1Cc1ccccc1	8800	60	–	150
O=C1N(Cc2ccc(CO)cc2)[C@H](Cc2ccncc2)[C@H](O)[C@@H](O)[C@@H](Cc2ccncc2)N1Cc1ccc(CO)cc1	> 10000	4.8	–	–
CC(C)C[C@@H]1[C@H](O)[C@@H](O)[C@@H](CC(C)C)N(Cc2ccc(CO)cc2)C(=O)N1Cc1ccc(CO)cc1	> 10000	38	–	–
Nc1cccc(C[C@@H]2[C@H](O)[C@@H](O)[C@@H](Cc3cccc(N)c3)N(Cc3ccccc3)C(=O)N2Cc2ccccc2)c1	1300	2.8	–	460
CSc1cccc(C[C@@H]2[C@H](O)[C@@H](O)[C@@H](Cc3cccc(SC)c3)N(Cc3ccccc3)C(=O)N2Cc2ccccc2)c1	4170	2.5	–	1700
O=C1N(Cc2ccccc2)[C@H](CCc2ccccc2)[C@H](O)[C@@H](O)[C@@H](CCc2ccccc2)N1Cc1ccccc1	> 10000	320	–	–
Cc1ccc(C)n1-c1cccc(C[C@@H]2[C@H](O)[C@@H](O)[C@@H](Cc3cccc(-n4c(C)ccc4C)c3)N(Cc3ccccc3)C(=O)N2Cc2ccccc2)c1	> 10000	160	–	–
O=C1N(Cc2ccc(CO)cc2)[C@H](Cc2ccc(F)cc2)[C@H](O)[C@@H](O)[C@@H](Cc2ccc(F)cc2)N1Cc1ccc(CO)cc1	100	0.44	–	230
COc1cc(C[C@@H]2[C@H](O)[C@@H](O)[C@@H](Cc3cc(OC)cc(OC)c3)N(CC3CC3)C(=O)N2CC2CC2)cc(OC)c1	380	2.7	–	140
CSc1ccc(C[C@@H]2[C@H](O)[C@@H](O)[C@@H](Cc3ccc(SC)cc3)N(Cc3ccccc3)C(=O)N2Cc2ccccc2)cc1	1300	3.4	–	380
O=C1N(Cc2ccc(CO)cc2)[C@H](CC2CCCCC2)[C@H](O)[C@@H](O)[C@@H](CC2CCCCC2)N1Cc1ccc(CO)cc1	> 10000	32	–	–
CSCC[C@@H]1[C@H](O)[C@@H](O)[C@@H](CCSC)N(CC2CC2)C(=O)N1CC1CC1	> 10000	–	–	–
CC(C)C[C@@H]1[C@H](O)[C@@H](O)[C@@H](CC(C)C)N(Cc2ccccc2)C(=O)N1Cc1ccccc1	> 10000	1700	–	–
O=C1N(Cc2ccccc2)[C@H](Cc2ccncc2)[C@H](O)[C@@H](O)[C@@H](Cc2ccncc2)N1Cc1ccccc1	5700	22	–	–

Compound	IC90 [1, 4] [nM]	Ki [2] [nM]	IC90 [1] [nM]	Ratio [3]
COc1cccc(C[C@@H]2[C@H](O)[C@@H](O)[C@@H](Cc3cccc(OC)c3)N(Cc3ccccc3)C(=O)N2Cc2ccccc2)c1	350	4.7	–	75
COc1cccc(C[C@@H]2[C@H](O)[C@@H](O)[C@@H](Cc3cccc(OC)c3)N(Cc3ccc(CO)cc3)C(=O)N2Cc2ccc(CO)cc2)c1	37	0.11	–	340
O=C1N(Cc2ccccc2)[C@H](Cc2c[nH]c3ccccc23)[C@H](O)[C@@H](O)[C@@H](Cc2c[nH]c3ccccc23)N1Cc1ccccc1	> 10000	580	–	–
Nc1ccc(C[C@@H]2[C@H](O)[C@@H](O)[C@@H](Cc3ccc(N)cc3)N(Cc3ccccc3)C(=O)N2Cc2ccccc2)cc1 [listing 3 of 3 here]	–	–	–	165 and 180
O=C1N(Cc2ccc(CO)cc2)[C@H](Cc2ccccc2)[C@H](O)[C@@H](O)[C@@H](Cc2ccccc2)N1Cc1ccc(CO)cc1 [DMP-323]	136	0.27	–	500
O=C1N(CC2CC2)[C@H](Cc2cccs2)[C@H](O)[C@@H](O)[C@@H](Cc2cccs2)N1CC1CC1	7800	9.1	–	860
COc1ccc(C[C@@H]2[C@H](O)[C@@H](O)[C@@H](Cc3ccc(OC)cc3)N(Cc3ccc(CO)cc3)C(=O)N2Cc2ccc(CO)cc2)cc1	56	0.24	–	230
CN(C)c1ccc(C[C@@H]2[C@H](O)[C@@H](O)[C@@H](Cc3ccc(N(C)C)cc3)N(Cc3ccccc3)C(=O)N2Cc2ccccc2)cc1	2700	46	–	60
O=C1N(Cc2ccccc2)[C@H](CC2CCCCC2)[C@H](O)[C@@H](O)[C@@H](CC2CCCCC2)N1Cc1ccccc1	> 10000	28	–	–
O=C1N(CC2CC2)[C@H](Cc2cccc(O)c2)[C@H](O)[C@@H](O)[C@@H](Cc2cccc(O)c2)N1CC1CC1	2570	13	–	200
CSCC[C@@H]1[C@H](O)[C@@H](O)[C@@H](CCSC)N(Cc2ccc(CO)cc2)C(=O)N1Cc1ccc(CO)cc1	> 10000	3900	–	–
CS(=O)(=O)c1ccc(C[C@@H]2[C@H](O)[C@@H](O)[C@@H](Cc3ccc(S(C)(=O)=O)cc3)N(Cc3ccccc3)C(=O)N2Cc2ccccc2)cc1	470	2.5	–	190
O=C1N(CC2CC2)[C@H](Cc2ccc3ccccc3c2)[C@H](O)[C@@H](O)[C@@H](Cc2ccc3ccccc3c2)N1CC1CC1	3400	4.3	–	790
COc1ccc(C[C@@H]2[C@H](O)[C@@H](O)[C@@H](Cc3ccc(OC)cc3)N(Cc3ccccc3)C(=O)N2Cc2ccccc2)cc1	600	8.6	–	70
COc1ccccc1C[C@@H]1[C@H](O)[C@@H](O)[C@@H](Cc2ccccc2OC)N(CC2CC2)C(=O)N1CC1CC1	> 10000	65	–	–
CC(C)c1ccc(C[C@@H]2[C@H](O)[C@@H](O)[C@@H](Cc3ccc(C(C)C)cc3)N(Cc3ccccc3)C(=O)N2Cc2ccccc2)cc1	> 10000	1.1	–	–
O=C1N(Cc2ccc(CO)cc2)[C@H](Cc2ccc(F)c(F)c2)[C@H](O)[C@@H](O)[C@@H](Cc2ccc(F)c(F)c2)N1Cc1ccc(CO)cc1	36	0.47	–	76
O=C1N(Cc2ccccc2)[C@H](Cc2ccc(O)cc2)[C@H](O)[C@@H](O)[C@@H](Cc2ccc(O)cc2)N1Cc1ccccc1	185	1.1	–	170
O=C1N(Cc2ccccc2)[C@H](Cc2ccccc2O)[C@H](O)[C@@H](O)[C@@H](Cc2ccccc2O)N1Cc1ccccc1	6500	35	–	185
O=C1N(Cc2ccccc2)[C@H](Cc2ccc3ccccc3c2)[C@H](O)[C@@H](O)[C@@H](Cc2ccc3ccccc3c2)N1Cc1ccccc1	3300	9.8	–	340
CC(C)C[C@@H]1[C@H](O)[C@@H](O)[C@@H](CC(C)C)N(CC2CC2)C(=O)N1CC1CC1	> 10000	86	–	–
CN(C)c1cccc(C[C@@H]2[C@H](O)[C@@H](O)[C@@H](Cc3cccc(N(C)C)c3)N(Cc3ccccc3)C(=O)N2Cc2ccccc2)c1	1200	4.3	–	280
O=C1N(CC2CC2)[C@H](Cc2ccc(F)cc2)[C@H](O)[C@@H](O)[C@@H](Cc2ccc(F)cc2)N1CC1CC1	3200	5.8	–	550
CC(C)[C@@H]1[C@H](O)[C@@H](O)[C@@H](C(C)C)N(CC2CC2)C(=O)N1CC1CC1	> 10000	–	–	–
